Our source for the IC50 values is patent publication US8138168B1 (Takeda Pharmaceutical Company Limited, priority 2007, dated 2012).

SMILES strings stand for the structures. Some results are limits rather than exact numbers.

In this test the target is T1, Recombinant human renin (Homo sapiens, UniProt P00797).
T1 construct: isolate the active form (residues 67-406); made in house; host or cells: FreeStyle 293-F cells (transient expression of pcDNA3.1(+)/hREN)
T1 sequence (P00797 67-406): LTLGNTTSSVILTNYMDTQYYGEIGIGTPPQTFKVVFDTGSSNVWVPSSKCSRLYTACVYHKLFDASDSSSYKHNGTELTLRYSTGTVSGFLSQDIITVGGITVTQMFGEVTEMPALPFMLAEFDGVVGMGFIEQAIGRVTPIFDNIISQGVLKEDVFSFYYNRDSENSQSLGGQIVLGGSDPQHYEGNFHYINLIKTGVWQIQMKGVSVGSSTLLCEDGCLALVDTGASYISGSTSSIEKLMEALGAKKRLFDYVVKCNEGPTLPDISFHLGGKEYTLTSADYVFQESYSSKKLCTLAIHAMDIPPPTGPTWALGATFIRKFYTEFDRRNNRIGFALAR
Description: In vitro enzymatic activity assay of renin inhibitors (fluorogenic peptide substrate). The class given is biochemical. The note with it: read-out: IC50 of Exemplified Compounds Against Renin. The method in brief: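 Enzyme: recombinant human renin, 3 nM final, 10 min compound pre-incubation at 37 °C; buffer 50 mM Hepes pH 7.4 with 0.1 mg/mL BSA or extra 2% BSA; 5% DMSO.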
The IC50 is the midpoint of a concentration-inhibition curve. Turning to `COCCCn1c([C@@H]2CCCN(C(=O)C[C@H](N)Cc3ccc4ccccc4c3)C2)nc2cc(F)ccc21` [Compound 96, (R)-3-amino-1((R)-3-(5-fluoro-1-(3-methoxypropyl)-1H-benzo[d]imidazol-2-yl)piperidin-1-yl)-4-(naphthalen-2-yl)butan-1-one], the IC50 lay in the range of 100 to 1000 nM.

For `COCCCn1c([C@@H]2CCCN(C(=O)C[C@H](N)Cc3ccc4ccccc4c3)C2)nc2cccc(Cl)c21` [Compound 97, (R)-3-amino-1-((R)-3-(7-chloro-1-(3-methoxypropyl)-1H-benzo[d]imidazol-2-yl)piperidin-1-yl)-4-(naphthalen-2-yl)butan-1-one], the half-inhibitory concentration (IC50) is less than 100 nM.

Take `COCCCn1c([C@@H]2CCCN(C(=O)C[C@H](N)Cc3ccc(-c4ccccc4)cc3)C2)nc2cccc(Cl)c21` [Compound 98, (R)-3-amino-4-(biphenyl-4-yl)-1-((R)-3-(7-chloro-1-(3-methoxypropyl)-1H-benzo[d]imidazol-2-yl)piperidin-1-yl)butan-1-one]: the IC50 was less than 100 nM.

As for `COCCCn1c([C@@H]2CCCN(C(=O)C[C@H](N)Cc3ccc4ccccc4c3)C2)nc2ccc(Cl)cc21` [Compound 99, (R)-3-amino-1-((R)-3-(6-chloro-1-(3-methoxypropyl)-1H-benzo[d]imidazol-2-yl)piperidin-1-yl)-4-(naphthalen-2-yl)butan-1-one], the IC50 is 100 to 1000 nM.

`COCCCn1c(C2CCCN(C(=O)C[C@H](N)Cc3ccc4ccccc4c3)C2)nc2ccc(OC)nc21` (stereo partly drawn) [Compound 100, (R)-3-amino-1-(3-(5-methoxy-3-(3-methoxypropyl)-3H-imidazo[4,5-b]pyridin-2-yl)piperidin-1-yl)-4-(naphthalen-2-yl)butan-1-one]: the 50% inhibitory concentration (IC50) lay within 100 to 1000 nM.

On to `COCCCn1c(C2CCCN(C(=O)CC(N)Cc3ccc4ccccc4c3)C2)nc2ccc(=O)[nH]c21` [Compound 101, (R)-2-(1-(3-amino-4-(naphthalen-2-yl)butanoyl)piperidin-3-yl)-3-(3-methoxypropyl)-3H-imidazo[4,5-b]pyridin-5(4H)-one], for which the half-maximal inhibitory concentration (IC50) was greater than 1000 nM.

`COCCCn1c(C2CCCN(C(=O)C[C@H](N)Cc3ccc4ccccc4c3)C2)nc2ccc(Cl)nc21` (stereo partly drawn) [Compound 102, (R)-3-amino-1-(3-(5-chloro-3-(3-methoxypropyl)-3H-imidazo[4,5-b]pyridin-2-yl)piperidin-1-yl)-4-(naphthalen-2-yl)butan-1-one]: the concentration for half-maximal inhibition (IC50) was greater than 1000 nM.

`COCCCn1c([C@@H]2CCCN(C(=O)C[C@H](N)Cc3ccc(-c4ccccc4)cc3)C2)nc2ccncc21` [Compound 103, (R)-3-amino-4-(biphenyl-4-yl)-1((R)-3-(3-(3-methoxypropyl)-3H-imidazo[4,5-c]pyridin-2-yl)piperidin-1-yl)butan-1-one]: the concentration for half-maximal inhibition (IC50) is greater than 1000 nM.

With `COCCCn1c([C@@H]2CCCN(C(=O)C[C@H](N)Cc3ccc4ccccc4c3)C2)nc2c(OC)cccc21` [Compound 104, (R)-3-amino-1((R)-3-(4-methoxy-1-(3-methoxypropyl)-1H-benzo[d]imidazol-2-yl)piperidin-1-yl)-4-(naphthalen-2-yl)butan-1-one], the half-maximal inhibitory concentration (IC50) is 100 to 1000 nM.

On to `COCCCn1c([C@@H]2CCCN(C(=O)C[C@H](N)Cc3ccc4ccccc4c3)C2)nc2cc(C)ccc21` [Compound 105, (R)-3-amino-1((R)-3-(1-(3-methoxypropyl)-5-methyl-1H-benzo[d]imidazol-2-yl)piperidin-1-yl)-4-(naphthalen-2-yl)butan-1-one], for which the IC50 was less than 100 nM.

Turning to `COCCCn1c([C@@H]2CCCN(C(=O)C[C@H](N)Cc3ccc4ccccc4c3)C2)nc2c(C)cccc21` [Compound 106, (R)-3-Amino-1-((R)-3-(1-(3-methoxypropyl)-4-methyl-1H-benzo[d]imidazol-2-yl)piperidin-1-yl)-4-(naphthalen-2-yl)butan-1-one], the half-inhibitory concentration (IC50) is less than 100 nM.

For `COCCCn1c([C@@H]2CCCN(C(=O)C[C@H](N)Cc3ccc4ccccc4c3)C2)nc2cccc(C)c21` [Compound 107, (R)-3-Amino-1-((R)-3-(1-(3-methoxypropyl)-7-methyl-1H-benzo[d]imidazol-2-yl)piperidin-1-yl)-4-(naphthalen-2-yl)butan-1-one], the IC50 was greater than 1000 nM.

`COCCCn1c([C@@H]2CCCN(C(=O)C[C@H](N)Cc3ccc4ccccc4c3)C2)nc2cccc(OC)c21` [Compound 108, (R)-3-amino-1-((R)-3-(7-methoxy-1-(3-methoxypropyl)-1H-benzo[d]imidazol-2-yl)piperidin-1-yl)-4-(naphthalen-2-yl)butan-1-one]: the IC50 is 100 to 1000 nM.

Regarding `COCCCn1c([C@@H]2CCCN(C(=O)C[C@H](N)Cc3ccc4ccccc4c3)C2)nc2ccc(C#N)cc21` [Compound 109, 2-((R)-1-((R)-3-amino-4-(naphthalen-2-yl)butanoyl)piperidin-3-yl)-1-(3-methoxypropyl)-1H-benzo[d]imidazole-6-carbonitrite], the IC50 is 100 to 1000 nM.

Take `COCCCn1c([C@@H]2CCCN(C(=O)C[C@H](N)Cc3ccc4ccccc4c3)C2)nc2ccc(OC)cc21` [Compound 110, (R)-3-amino-1((R)-3-(6-methoxy-1-(3-methoxypropyl)-1H-benzo[d]imidazol-2-yl)piperidin-1-yl)-4-(naphthalen-2-yl)butan-1-one]: the IC50 was in the range of 100 to 1000 nM.

Consider `COCCCn1c(C2CCCN(C(=O)C[C@H](N)Cc3ccc4ccccc4c3)C2)nc2ccc(C(=O)OC)cc21` (stereo partly drawn) [Compound 111, methyl 2-(1-((R)-3-amino-4-(naphthalen-2-yl)butanoyl)piperidin-3-yl)-1-(3-methoxypropyl)-1H-benzo[d]imidazole-6-carboxylate], for which the IC50 was in the range of 100 to 1000 nM.

Regarding `COCCCn1c(C2CCCN(C(=O)C[C@H](N)Cc3ccc4ccccc4c3)C2)nc2cccc(C(=O)OC)c21` (stereo partly drawn) [Compound 112, methyl 2-(1-((R)-3-amino-4-(naphthalen-2-yl)butanoyl)piperidin-3-yl)-1-(3-methoxypropyl)-1H-benzo[d]imidazole-7-carboxylate], the IC50 was greater than 1000 nM.

`COCCCn1c(C2CCCN(C(=O)C[C@H](N)Cc3ccc4ccccc4c3)C2)nc2ccc(CO)cc21` (stereo partly drawn) [Compound 113, (3R)-3-amino-1-(3-(6-(hydroxymethyl)-1-(3-methoxypropyl)-1H-benzo[d]imidazol-2-yl)piperidin-1-yl)-4-(naphthalen-2-yl)butan-1-one]: the IC50 is 100 to 1000 nM.

As to `COCCCn1c([C@@H]2CCCN(C(=O)C[C@H](N)Cc3ccc4ccccc4c3)C2)nc2ccc([N+](=O)[O-])cc21` [Compound 114, (R)-3-amino-1-((R)-3-(1-(3-methoxypropyl)-6-nitro-1H-benzo[d]imidazol-2-yl)piperidin-1-yl)-4-(naphthalen-2-yl)butan-1-one], the IC50 is greater than 1000 nM.

Take `COCCCn1c([C@@H]2CCCN(C(=O)C[C@H](N)Cc3ccc4ccccc4c3)C2)nc2cc([N+](=O)[O-])ccc21` [Compound 115, (R)-3-arni no-1-((R)-3-(1-(3-methoxypropyl)-5-nitro-1H-benzo[d]imidazol-2-yl)piperidin-1-yl)-4-(naphthalen-2-yl)butan-1-one]: the IC50 lay in the range of 100 to 1000 nM.

For the compound `COCCCn1c([C@@H]2CCCN(C(=O)C[C@H](N)Cc3ccc4ccccc4c3)C2)nc2ccc(C(C)C)cc21` [Compound 116, (R)-3-amino-1-((R)-3-(6-isopropyl-1-(3-methoxypropyl)-1H-benzo[d]imidazol-2-yl)piperidin-1-yl)-4-(naphthalen-2-yl)butan-1-one], the IC50 was 100 to 1000 nM.
